# According to patent US9174948B2, “Desferrithiocin polyether analogues” (University of Florida Research Foundation, Inc., priority 2007, dated 2015):
# “Also recorded” adds a separate entry of the source. Like-named read-outs stand apart in the source and are kept apart here. Marks after values point to notes of the source that are not given here.
# How the values were obtained:
# [1] = tested on: Iron-Overloaded Cebus apella Primates; settings: po, cited from earlier work; for Iron-Clearing Efficiency (%): Cebus apella, 150 μmol/kg, historical data
# [2] = tested on: Non-Iron-Overloaded Rodents; assay: Chelator-induced iron clearance in non-iron-overloaded, bile duct-cannulated rats; format: in vivo, rat (male Sprague-Dawley); settings: po, 300 μmol/kg, 1 vs 3, 4 vs 6, 7 vs 9
# Excerpt: Chelator-Induced Iron Clearance in Non-Iron-Overloaded Rodents. […] J. Med. Chem. 2006, 49, 2772-2783]. Recall that iron-clearing efficiency (ICE) is defined as (net iron excretion)/(total iron-binding capacity of the chelator), expressed as a percent. The relative ICE values of compounds 1 and 2 were in keeping with their log Papp values: the more lipophilic, the larger log Papp, the more efficient the chelator. […] However, the ICE trend was in keeping with the biliary ferrokinetics (FIG. 3) and liver concentration of the chelators, for example, 3>1 (FIG. 4).
# Cannulation of Bile Duct in Non-Iron-Overloaded Rats has been described previously. […]. […] The urine sample(s) was taken at 24 h intervals. Sample collection and handling are as previously described [Bergeron, R. J., Streiff, R. R., Creary, E. A., Daniels, R. D., Jr., King, W., Luchetta, G., Wiegand, J., Moerker, T. and Peter, H. H. A Comparative Study of the Iron-Clearing Properties of Desferrithiocin Analogues with Desferrioxamine B in a Cebus Monkey Model. Blood 1993, 81, 2166-2173; Bergeron, R. J., Streiff, R. R., Wiegand, J., Vinson, J. R. T., Luchetta, G., Evans, K. M., Peter, H. and Jenny, H.-B. A Comparative Evaluation of Iron Clearance Models. Ann. N.Y. Acad. Sci. 1990, 612, 378-393].
# In the iron-clearing experiments, the rats were given a single 300 μmol/kg dose of drugs 1-9 orally (po).
# J. Med. Chem. 1999, 42, 2432-2440].
# [3] = earlier preclinical studies; cited from earlier work
# [4] = Chelator tissue distribution in rodents; format: in vivo, rat (male Sprague-Dawley); settings: rats, sc, 300 μmol/kg
# Experimental: Collection of Tissue Distribution Samples from Rodents: Male Sprague-Dawley rats (250-350 g) were given a single sc injection of the monosodium salts of 6 and 9 prepared as described above at a dose of 300 μmol/kg. At times 0.5, 1, 2, and 4 h after dosing (n=3 rats per time point) the animals were euthanized by exposure to CO2 gas. Blood was obtained via cardiac puncture into vacutainers containing sodium citrate. The blood was centrifuged, and the plasma was separated for analysis. The liver, heart, kidneys, and pancreas were then removed from the animals. […] J. Med. Chem. 2006, 49, 2772-2783]. In the current study, tissues from the (S)-3′-(HO)-DADFT-PE (9) and (S)-5′-(HO)-DADFT-PE (6) treated rats were prepared for HPLC analysis by homogenizing them in 0.5 N HClO4 at a ratio of 1:3 (w/v). Then, as a rinse, CH3OH at a ratio of 1:3 (w/v) was added and the mixture was stored at −20° C. for 30 min. This homogenate was centrifuged. The supernatant was diluted with mobile phase A (95% buffer [25 mM KH2PO4, pH 3.0]/5% CH3CN), vortexed, and filtered with a 0.2 μm membrane. Analytical separation was performed on a Discovery RP Amide C16 HPLC system with UV detection at 310 nm as described previously [Bergeron, R. J., Wiegand, J., Weimar, W. R., McManis, J. S., Smith, R. E. and Abboud, K. A. Iron Chelation Promoted by Desazadesferrithiocin Analogues: An Enantioselective Barrier. Chirality 2003, 15, 593-599; Bergeron, R. J., Wiegand, J., Ratliff-Thompson, K. and Weimar, W. R. The Origin of the Differences in (R)- and (S)-Desmethyldesferrithiocin: Iron-Clearing Properties. Ann. N.Y. Acad. Sci. 1998, 850, 202-216]. Mobile phase and chromatographic conditions were as follows: solvent A, 5% CH3CN/95% buffer; solvent B, 60% CH3CN/40% buffer. The concentrations were calculated from the peak area fitted to calibration curves by nonweighted least-squares linear regression with Rainin Dynamax HPLC Method Manager software (Rainin Instrument Co.).
# [5] = tested on: Non-Iron-Overloaded Rodents; settings: po, cited from earlier work; for Iron-Clearing Efficiency (%): rats, 300 μmol/kg, historical data
# [6] = target: Sudlow types I and II albumin binding sites (Rattus norvegicus, UniProt P02770); assay: Ligand-albumin binding in bile duct-cannulated rodents treated with sodium benzoate; settings: rats; for Iron-Clearing Efficiency (%): chelator 300 μmol/kg po plus sodium benzoate 250 mg/kg/dose sc × 6 doses; for fold increase in ICE with sodium benzoate: chelator 300 μmol/kg po, with vs without sodium benzoate
# Sequence of Sudlow types I and II albumin binding sites (P02770 25-608): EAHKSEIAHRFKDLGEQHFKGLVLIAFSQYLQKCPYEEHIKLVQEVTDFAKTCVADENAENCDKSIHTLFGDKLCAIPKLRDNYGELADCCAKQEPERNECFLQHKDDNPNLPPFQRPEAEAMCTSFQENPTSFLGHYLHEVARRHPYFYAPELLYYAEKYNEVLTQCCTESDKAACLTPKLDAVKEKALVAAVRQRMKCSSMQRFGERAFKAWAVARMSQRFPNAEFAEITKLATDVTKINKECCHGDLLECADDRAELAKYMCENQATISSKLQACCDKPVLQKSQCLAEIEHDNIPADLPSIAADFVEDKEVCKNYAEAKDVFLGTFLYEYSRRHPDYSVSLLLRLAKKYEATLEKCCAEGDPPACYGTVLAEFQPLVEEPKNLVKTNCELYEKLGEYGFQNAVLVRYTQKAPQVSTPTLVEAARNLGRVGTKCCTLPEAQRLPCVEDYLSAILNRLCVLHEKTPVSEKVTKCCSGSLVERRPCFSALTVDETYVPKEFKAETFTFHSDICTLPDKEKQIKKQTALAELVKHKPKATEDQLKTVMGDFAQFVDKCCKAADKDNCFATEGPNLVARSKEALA
# [7] = tested on: kidney proximal and distal tubules; settings: rats, po, 237 μmol/kg/dose twice daily (474 μmol/kg/day) for 7 days; cited from earlier work
# [8] = 2:1 complex with Fe(III); cited from earlier work
# [9] = listed as (S)-4′-(HO)-DADFT-PE (3)
# [10] = listed as (S)-4′-(HO)-DADFT (1)
kidney concentration ([4]; 0.5 h),kidney concentration ([4]; 1 h),kidney concentration ([4]; 4 h),Iron-Clearing Efficiency (%) [6],fold increase in ICE with sodium benzoate [6],Structure (SMILES),Iron-Clearing Efficiency (%) [1],toxicity / nephrotoxicity in words [3],Iron-Clearing Efficiency (%) [5],distal tubules under light microscopy [7],proximal tubules under light microscopy [7],other results
368±74 nmol/g wet weight,252±10 nmol/g wet weight,34±13 nmol/g wet weight,8.8±2.4%,1.6 fold,"COCCOCCOCCOc1ccc(C2=N[C@@](C)(C(=O)O)CS2)c(O)c1 [Compound 3, (S)-4,5-dihydro-2-[2-hydroxy-4-(3,6,9-trioxadecyloxy)phenyl]-4-methyl-4-thiazolecarboxylic acid]",25.4±7.4%,profoundly reduced nephrotoxicity; also recorded: profoundly less nephrotoxic,5.5±1.9%,occasional vacuolization but were otherwise normal,indistinguishable from those of the control animals,"ICE of the polyether relative to that of the parent ligand [2]: 500%; concentration at 0.5 h ([4]; male, Sprague-Dawley, rat, plasma, 0.5 h): 194 ± 60 µM; decrease of liver concentration from 0.5 h to 1 h [4]: 6%; liver concentration ([4]; 0.5 h): 339±35 nmol/g wet weight; drop in plasma concentration relative to 0.5 h ([4]; 1 h): 28%; drop in plasma concentration relative to 0.5 h ([4]; 2 h): 92%; kidney concentration ([4]; 2 h): 41±3 nmol/g wet weight; pancreas concentration ([4]; 2 h): ≈ 30 nmol/g wet weight; drop in plasma concentration relative to 0.5 h ([4]; 4 h): 97%; Iron-Clearing Efficiency (%) [5, 9]: 5.5 ± 1.9%; Iron-Clearing Efficiency (%) [6, 9]: 8.8 ± 2.4^c %"
361±56 nmol/g wet weight,179±4 nmol/g wet weight,27±7 nmol/g wet weight,12.0±2.6%,10.9 fold,"C[C@]1(C(=O)O)CSC(c2ccc(O)cc2O)=N1 [Compound 1, (S)-2-(2,4-dihydroxyphenyl)-4,5-dihydro-4-methyl-4-thiazolecarboxylic acid]",16.8±7.2%,no geno- or reproductive toxicity and only mild nephrotoxicity at high doses,1.1±0.8%,moderate to severe vacuolization,"regional, moderate to severe vacuolization in the proximal tubules, a loss of the brush border, and tubular extrusions toward the lumen","pancreas concentration ([4]; 4 h): undetectable; Iron-Clearing Efficiency (%) [5, 10]: 1.1 ± 0.8%; Iron-Clearing Efficiency (%) [6, 10]: 12.0 ± 2.6^b %"
–,–,–,–,–,"C[C@]1(C(=O)O)CSC(c2ncccc2O)=N1 [DFT, (S)-4,5-dihydro-2-(3-hydroxy-2-pyridinyl)-4-methyl-4-thiazolecarboxylic acid, reference compound]",–,severely nephrotoxic,–,–,–,ICE ([1]; iron-overloaded Cebus apella primate): 16%; ICE ([5]; bile duct-cannulated rodent model): 5.5%; cumulative formation constant [8]: 4e+29 M⁻¹
